Experiment: Side effects compared with quinidine and lidocaine
Details: as compared to quinidine and lidocaine

CC(C)N(CCOc1cc(Cl)cc(Cl)c1)C(=O)NCCN(C)C.O=C(O)/C=C\C(=O)O [Example 3, N-[2-(3,5-Dichlorophenoxy)ethyl]-N'-[2-(dimethylamino)ethyl]-N-(1-methylethyl)urea, maleate [1:1]]
CNS side effects: minimal CNS side effects

Source: patent EP0066987B1, “N-(aryloxyalkyl)-N'-(amino-alkyl) ureas” (A.H. ROBINS COMPANY, INCORPORATED, priority 1981, dated 1982)
